Each structure is given as a SMILES string. Calls of active or inactive are those of the source. The rule behind the calls is not given here.

The test system of this assay is 697B cells, BCR-induced NF-kB luciferase reporter luminescence. Nature of the assay: inhibitors of BCR-induced NF-kB activation, dose response, 697B cells, luciferase luminescence (AID 489023).
On to `O=C(Nc1nc(-c2ccccc2)cs1)c1ccccc1NS(=O)(=O)c1ccc(F)cc1`, for which the IC50 is 21.7 µM (inactive). For the compound `Cn1c(=O)c2c(SCC(=O)Nc3ccccc3F)nc(-c3ccccc3F)nc2n(C)c1=O`, the IC50 was 21.8 µM (inactive).

Regarding `Cc1ccc(C(=O)CSc2nnc(COc3cc(C)cc(C)c3)o2)cc1`, the IC50 is > 80 µM (inactive). The value for `CCC(CO)Oc1cc(NCc2ccccc2O)c2ncn(C(C)C)c2c1` (stereo not drawn) was > 80 µM (inactive); that for `Cc1cc(OCC(=O)Nc2ccc(CCO)cc2)c2c(C)c(C)c(=O)oc2c1` was > 80 µM (inactive). For the compound `CCN1C(=O)c2cccc3c(NC(=O)c4cccc(N5C(=O)CCC5=O)c4)ccc1c23`, the IC50 is > 80 µM (inactive). With `CCN(CC)c1ccc(/C=N/N=C(c2ccccc2)c2ccccc2)c(O)c1`, the IC50 is > 80 µM (inactive). Take `O=C(CN1C(=O)c2ccccc2S1(=O)=O)c1ccccc1Cl`: the IC50 was 1.13 µM. On to `Cc1[nH]c2ccccc2c1C(=O)CN1C(=O)NC2(CC(C)CC(C)(C)C2)C1=O` (stereo not drawn), for which the IC50 was 6.97 µM.

`Cc1cc(C)cc(NC(=O)Nc2ccc(NC(=O)c3ccccc3O)cc2)c1`: the IC50 is > 80 µM (inactive). With `CCOc1ccc(-n2c(-c3ccccc3)c[n+]3c2CCCCC3)cc1`, the IC50 was > 80 µM (inactive). On to `CC(C)(C)c1ccc(-c2noc(CCC(=O)Nc3cccnc3)n2)cc1`, for which the half-inhibitory concentration (IC50) was below 0.16 µM.

With `O=S(=O)(c1cnc(Cl)c(Cl)c1)N1CCCc2ccccc21`, the IC50 was 33.8 µM (inactive).

Take `Cc1c(CCC(=O)N2CCC(C(=O)O)(c3ccccc3)CC2)c(=O)oc2cc3oc4c(c3cc12)CCCC4`: the IC50 was > 80 µM (inactive). In the case of `CCN1CCN(C(=O)CSc2cc(=O)n(CC)c3ccccc23)CC1`, the IC50 was > 80 µM (inactive).

Consider `COC(=O)c1[nH]c2ccc(C)cc2c1NC(=O)Nc1ccccc1OC`, for which the IC50 was > 80 µM (inactive). Consider `O=c1c(C=NCCCO)c(-c2ccccc2)[nH]n1-c1nc2ccccc2s1`, for which the 50% inhibitory concentration (IC50) was 9.07 µM. Consider `Fc1ccc(C2=Nn3c(nnc3-c3n[nH]c4c3CCC4)SC2)cc1`, for which the IC50 is 34.6 µM (inactive).

For `CCOc1ccc(NC(=O)CCCc2cc(-c3ccc(OCC)cc3)on2)cc1`, the 50% inhibitory concentration (IC50) is 1.95 µM. `Cc1ccc2nc(NC(=O)CSCC(=O)OCC(=O)c3ccc(Br)cc3)sc2c1`: the half-maximal inhibitory concentration (IC50) is 3.6 µM. Take `CCOC(=O)Cc1csc(NC(=S)NC(=O)c2ccc(Cl)cc2)n1`: the IC50 was 30.6 µM (inactive). `CCN(CC)CCOC(=O)c1ccc(NC(=O)CCCN2C(=O)S/C(=C/c3ccc(OC)cc3)C2=S)cc1`: the IC50 is 2.11 µM. As for `CCn1c(=S)[nH]c2cc(S(=O)(=O)N3CCCCC3)ccc21`, the IC50 is 31 µM (inactive).

On to `COCCNC(=O)CSCc1nc(-c2ccc(SC)cc2)oc1C`, for which the concentration for half-maximal inhibition (IC50) is 4.56 µM. As to `COc1ccc(N(CC(=O)N2CCN(c3ccc(Cl)cc3)CC2)S(=O)(=O)c2c(C)n[nH]c2C)cc1`, the IC50 is > 80 µM (inactive). For the compound `Cc1ccc(-c2nn3c(C)nnc3c3ccccc23)cc1S(=O)(=O)NC(C)(C)CO`, the IC50 is 29.6 µM (inactive). Regarding `CCCC(=O)Nc1ccc(Sc2ccc([N+](=O)[O-])cc2)cc1`, the IC50 is 69.3 µM (inactive). On to `COc1ccc(NC(=O)CN(C)C(=O)C2(c3ccccc3)CCCC2)cc1`, for which the IC50 is 3.56 µM.

On to `O=C(CCCc1nc(-c2ccccc2Cl)no1)NC1CCCC1`, for which the concentration for half-maximal inhibition (IC50) is 1.25 µM. For the compound `CC1=CC(C)(C)Nc2ccc(OC(=O)c3cccnc3)cc21`, the IC50 is 14.3 µM.

For the compound `Cc1c(NC(=O)/C=C/c2cn(-c3ccccc3)nc2-c2ccccc2)c(=O)n(-c2ccccc2)n1C`, the IC50 was > 80 µM (inactive).

In the case of `COc1ccc(-n2c(-c3ccc(Br)cc3)c[n+]3c2CCc2ccccc2-3)cc1`, the IC50 was > 80 µM (inactive). As for `C=CCOC(=O)COc1cc(C)cc2oc(=O)c3c(c12)CCC3`, the IC50 is > 80 µM (inactive). In the case of `COc1ccc(/C=N\NC(=O)c2sccc2C)cc1Cn1nc(C)cc1C`, the IC50 was 55.9 µM (inactive). The result for `CC(C)C(c1nnnn1Cc1ccccc1)N(Cc1ccco1)Cc1cccs1` (stereo not drawn) reads > 80 µM (inactive). In the case of `CCN1C(=O)Nc2cccc3cccc1c23`, the IC50 was 35.2 µM (inactive). As for `COc1ccc(-c2noc(CCCC(=O)Nc3ccc(C(N)=O)cc3)n2)cc1`, the IC50 is 8.71 µM. Consider `c1ccc(CCNc2ncnc3ccccc23)cc1`, for which the IC50 was 60.1 µM (inactive). As to `CCOc1ccc(-c2noc(CCC(=O)O)n2)cc1`, the IC50 is 4.12 µM. Turning to `CCc1ccc(/C=C2\SC(=S)N(CCC(=O)Nc3cc(C)on3)C2=O)cc1`, the IC50 is 19.3 µM.

For `Cn1nnnc1Sc1ncnc2scc(Br)c12`, the IC50 is 0.67 µM. Regarding `O=C(CCCN1C(=O)/C(=C/c2ccccc2Cl)SC1=S)NNC(=O)c1ccc(Cl)cc1`, the IC50 was 30.7 µM (inactive).

In the case of `COc1ccc2nc(Sc3c([N+](=O)[O-])nc(C)n3Cc3ccccc3)[nH]c2c1`, the half-maximal inhibitory concentration (IC50) is 18.2 µM. The result for `Cc1nc2ccccn2c1C(=O)/C=C/c1cccc([N+](=O)[O-])c1` reads 22.8 µM (inactive); that for `COc1ccc(C(=O)N/N=C/c2ccc(OC)c(CN3CCCc4ccccc43)c2)cc1`, > 80 µM (inactive).

As for `COc1cc(-c2[nH]nc3c2C(c2ccco2)C(C#N)=C(N)O3)cc(OC)c1OC` (stereo not drawn), the IC50 is > 80 µM (inactive). The value for `CCOc1ccc(-n2c(SCC(=O)Nc3ccc4c(c3)OCCO4)nc3c(c2=O)SCC3)cc1` was 11.7 µM. The result for `CCC(C)[C@H](N)c1nnc(SCC(=O)c2ccc(Cl)cc2)o1` (stereo partly drawn) reads > 80 µM (inactive). With `CC(C)[C@H](N)c1nnc(SCC(=O)c2ccc(Cl)cc2)o1`, the IC50 was > 80 µM (inactive).

Consider `CSc1ccc(-c2nc(CSCC(=O)NC3CC3)c(C)o2)cc1`, for which the IC50 was 2.44 µM. With `COc1ccc(-c2csc3nc(-c4cccnc4)nc(N4CCC(C(N)=O)CC4)c23)cc1OC`, the IC50 is 44.2 µM (inactive). For the compound `C=C(C)[C@@H]1CCC2(C(=O)O)CC[C@]3(C)[C@H](CC[C@@H]4[C@@]5(C)CCC(=O)C(C)(C)[C@@H]5CC[C@]43C)[C@@H]12` (stereo partly drawn), the IC50 is 71.6 µM (inactive). As for `COc1ccc(C2=NCc3nnc(C)n3-c3ccc(Cl)cc32)cc1Cl`, the IC50 was 43.6 µM (inactive). On to `Cc1cccc(C(=O)Nc2ccc(CC(=O)O)cc2)c1`, for which the IC50 was 24.1 µM (inactive). As to `O=C(NNC(=O)C12CC3CC(CC(C3)C1)C2)c1cccc(O)c1`, the concentration for half-maximal inhibition (IC50) is 16.5 µM. On to `COc1cccc(/C=C2\SC(=S)N(CCCC(=O)NC3=NCCS3)C2=O)c1`, for which the IC50 is 56.3 µM (inactive).

With `Cn1c(=O)n(C)c2cc(/C=C3/NC(=O)N(Cc4ccccc4)C3=O)ccc21`, the IC50 was > 80 µM (inactive). With `Cc1[nH]c2ccccc2c1/C=N/Nc1nc(Nc2ccc(F)cc2)nc(N2CCOCC2)n1`, the IC50 is 1.22 µM. On to `Cc1[nH]c2ccccc2c1/C=N/Nc1nc(Nc2ccccc2)nc(N2CCOCC2)n1`, for which the half-maximal inhibitory concentration (IC50) was 3.35 µM.

For the compound `C=CCOc1ccc(NC(=O)C(=O)NCCCn2ccnc2)cc1`, the IC50 is > 80 µM (inactive).

As to `CN1CCN(C(=O)c2ccccc2N(Cc2ccccc2)S(=O)(=O)c2ccccc2)CC1`, the IC50 was 29.2 µM (inactive). For the compound `CC(=C\c1ccccc1)/C=C1/SC(=O)N(CCCC(=O)Nc2ccc(C(=O)O)cc2)C1=O`, the IC50 is 0.64 µM.

For the compound `COC(=O)[C@@H]1Cc2c([nH]c3ccccc23)C(C)(C)N1C(=O)CCl`, the IC50 is 1.12 µM. The result for `O=C1CCCc2c1[nH]c1ccc(CN3CCCCC3)cc21` reads > 80 µM (inactive); that for `COc1ccc(-c2noc(N3CCC(C(=O)Nc4ccc(F)cc4F)CC3)n2)cc1`, > 80 µM (inactive). Regarding `Cc1nc([N+](=O)[O-])c(Sc2nc3ccc([N+](=O)[O-])cc3[nH]2)n1Cc1ccccc1`, the 50% inhibitory concentration (IC50) is 8.74 µM. As for `COc1ccc(CC(=O)Nc2cccc(-c3ccc4nnc(C)n4n3)c2)cc1`, the IC50 was 71.7 µM (inactive). Take `CC(C)C(=O)Nc1ccc(NC(=O)c2ccc3c(c2)OCO3)cc1`: the IC50 is 17.2 µM. The result for `CCCc1nc2c(C)cc(-c3nc4ccccc4n3C)cc2n1Cc1ccc(-c2ccccc2C(=O)O)cc1` reads 72.5 µM (inactive). The value for `COc1ccccc1/C=C1\SC(=S)N(CCC(=O)Nc2cc(C)on2)C1=O` was 36.8 µM (inactive); that for `Cc1cc(C)nc(Sc2ccc([N+](=O)[O-])cc2[N+](=O)[O-])n1` was 1.95 µM. As for `COc1ccc(C(C(=O)NC2CCCCC2)N(C(=O)CCl)c2ccc(Cl)cc2)cc1` (stereo not drawn), the IC50 was 0.85 µM. With `Cc1ccc(-n2c(-c3ccccc3)c[n+]3c2CCc2ccccc2-3)c(C)c1`, the IC50 was 56.7 µM (inactive). Turning to `N=c1c(C(=O)NC2CCCC2)cc2c(=O)n3ccccc3nc2n1CCN1CCOCC1`, the IC50 is > 80 µM (inactive). With `CCNc1nc(C)c2cc(Br)c(=O)n(CC)c2n1`, the 50% inhibitory concentration (IC50) is 1.48 µM. The result for `COc1cc(C(=O)Nc2cc(C)c(OCC(=O)N3CCOCC3)c(C)c2)cc(OC)c1OC` reads > 80 µM (inactive). Turning to `CCc1ccc(-c2nc(CSCC(=O)NC3CC3)c(C)o2)cc1`, the IC50 was 0.41 µM. The result for `COc1ccc(/C=C2\SC(=S)N(CCC(=O)Nc3ccc(C(=O)O)cc3)C2=O)cc1` reads > 80 µM (inactive); that for `COc1cc(C2C(C#N)=C(N)Oc3cc(N)ccc32)cc(OC)c1OC` (stereo not drawn), > 80 µM (inactive). For `COc1ccc(/C=C2/SC(=S)N(CCC(=O)O)C2=O)cc1`, the IC50 was 2.46 µM. With `CCc1ccc2nc(Nc3nc(COC)cc(=O)[nH]3)nc(C)c2c1`, the IC50 was > 80 µM (inactive). In the case of `COc1ccc(-c2noc(CCCC(=O)O)n2)cc1`, the IC50 is 2.14 µM. The result for `CC1CC(C)CN(S(=O)(=O)c2ccc(C(=O)NCCCn3ccnc3)cc2)C1` (stereo not drawn) reads 5.07 µM; that for `CC1CCN(c2c(NCc3ccc(C(=O)N4c5ccccc5CC4C)cc3)c(=O)c2=O)CC1` (stereo not drawn), > 80 µM (inactive); that for `CC1=CC(C)(C)Nc2ccc(OC(=O)CN3C(=O)c4ccccc4C3=O)cc21`, 4.73 µM. Take `COc1ccc(C(=O)Nc2nnc(Cc3cccs3)s2)cc1OC`: the IC50 is > 80 µM (inactive). Turning to `Cc1ccc(-c2cc(C(=O)NCCCN3CCOCC3)no2)cc1`, the concentration for half-maximal inhibition (IC50) is 11.5 µM. The result for `O=C(Nc1cccc(Oc2ccc3c(c2)C(=O)NC3=O)c1)c1cccs1` reads > 80 µM (inactive).

(Values after PubChem BioAssay AID489023 (Sanford-Burnham Center for Chemical Genomics, 2010).)
